Measured values published in article PMC8450399, “Expression Profiles and Functional Characterization of Chemosensory Protein 15 (HhalCSP15) in the Brown Marmorated Stink Bug Halyomorpha halys” (Frontiers in Physiology, 2021).

How the values were obtained:
HhalCSP15 = test: Fluorescence competitive binding assay with 1-NPN as fluorescent probe; design: species or system Halyomorpha halys; conditions: for Ki: Ki=IC50/(1+[1-NPN]/K1-NPN), HhalCSP15 and 1-NPN 2 μM, pH 7.4, triplicate, read-out: Ki, dissociation constant; for binding ability with HhalCSP15 (in words): fluorescence binding experiments
Method: The binding abilities of HhalCSP15 to 43 volatiles were measured on an F-380 fluorescence spectrophotometer (Tianjin, China) using 10-nm slits and a 1-cm light path. As the fluorescent probe, N-phenyl-1-naphthylamine (1-NPN) was excited at the wavelength of 337nm, and emission spectra were recorded between 390 and 530nm. To measure the affinity of 1-NPN to the HhalCSP15 protein, a 2-μM solution of purified protein in 50-mM Tris-HCl at pH 7.4 was titrated with aliquots of 1-mM 1-NPN dissolved in methanol to final concentrations ranging from 2 to 16μM.
[…] Dissociation constants of the competitors were calculated by the equation Ki=IC50/(1+[1-NPN]/K1-NPN), where IC50 is the concentration of ligands halving the initial fluorescence value of 1-NPN, [1-NPN] is the free concentration of 1-NPN, and K1-NPN is the dissociation constant of the HhalCSP15/1-NPN complex.

[1] = test system: Halyomorpha halys antennae; test: Electroantennography (EAG) recordings; conditions: 10 μl of 100 μg/μl in paraffin oil; for EAG response of antennae (in words; comparison among nymphs, females, males): third instar nymphs and 1- to 3-day old male and female adults, solvent-corrected
Method: The antennal responses of H. halys to the three ligands of […]15 were evaluated using conventional EAG methods as described in previous study ([Wang et al., 2020]). Briefly, antennae of the third instar nymphs and 1- to 3-day old male and female adults were dissected, and a few terminal segments at the distal end were excised. The treated antennae were attached to electrode holders with electrode gel. Ten microliters of tested chemicals (100μg/μl, diluted in paraffin oil) were applied to filter paper strips (1.0cm×2.0cm) and inserted into a glass Pasteur pipette as a cartridge. The test cartridge was connected to a stimulus controller (CS-55; Syntech, Kirchzarten, Germany) that generated a 0.5s stimulus at 30s intervals, with a constant flow of 10ml/s. The signals generated by the antennae were recorded using EAG Pro (Syntech). A blank stimulus (solvent control) was presented before testing the compound. For each compound, EAG responses were recorded from eight antennae of different insects. The EAG responses elicited by the test odor stimuli were corrected by subtracting EAG response from the solvent control. The corrected EAG data were statistically analyzed using ANOVA followed by Tukey's HSD test.

Structure (SMILES) | Ki (HhalCSP15) | binding ability with HhalCSP15 (in words) (HhalCSP15) | EAG response of antennae (in words; comparison among nymphs, females, males) [1] | also measured
c1ccc(Nc2cccc3ccccc23)cc1 [1-NPN, N-phenyl-1-naphthylamine, reference compound] |  |  |  | Kd (HhalCSP15; 2 μM protein in 50 mM Tris-HCl pH 7.4 titrated with 1-NPN 2 to 16 μM, read-out: dissociation constant of the HhalCSP15/1-NPN complex): 9.36 µM
CCCCCCCCCCCCC [Tridecane] |  | could not bind |  | 
CCCCCCC/C=C/C=O [trans-2-Decenal] |  | could not bind |  | 

The next lines start with results.

Ki (HhalCSP15) | binding ability with HhalCSP15 (in words) (HhalCSP15) | Structure (SMILES) | EAG response of antennae (in words; comparison among nymphs, females, males) [1] | also measured
10.5 ± 0.8 µM | strong binding abilities | CC/C=C\CCOC(=O)c1ccccc1 [cis-3-Hexen-1-yl benzoate] |  | EAG response compared among ligands (in words) ([1]; nymphs and adults): highest EAG response among all ligands in both nymphs and adults; EAG response of antennae (in words; comparison among nymphs, females, males) ([1]; listed as Cis-3-hexen-1-yl benzoate): significantly greater responses in females compared with males and nymphs; EAG response of antennae (in words; comparison among nymphs, females, males) ([1]; listed as cis-3-hexen-1-yl benzoate): elicit an EAG response in both nymph and adult H. halys antennae
9.6 ± 0.4 µM | identified as a binding ligand | CCC\C=C/C=C/C=C/C(=O)OC [Methyl (2E,4E,6Z)-decatrienoate] | significantly greater EAG responses in adults compared with nymphs | 
11.9 ± 0.6 µM | strong binding abilities | CC(=O)/C=C/C1=C(C)CCCC1(C)C [β-Ionone] | elicit an EAG response in both nymph and adult H. halys antennae | EAG response of antennae (in words; comparison among nymphs, females, males) ([1]; listed as β-ionone): significantly greater responses in females compared with males and nymphs
